Data on 19 compounds can be found in patent US10738062B2, “Chromane-substituted tetracyclic compounds and uses thereof for the treatment of viral diseases” (Merck Sharp & Dohme Corp., priority 2016, dated 2020).

Like-named read-outs stand apart in the source and are kept apart here.

Holding throughout (design): species or system Hepatitis C virus
Experiment [1] has as its system HCV replicon 1A. In words: Cell-based HCV replicon assay (Replicon Assay A), replicon 1A. The note with it: replicon RNA by real time PCR, day 3. The procedure: (§1) To measure cell-based anti-HCV activity of compounds of the present invention, two complimentary assays were employed using various replicons. In the first assay (“Replicon Assay A”), replicon cells were seeded at 2000 cells/well in 384-well 384-well flat bottom tissue culture treated clear bottom plate (Corning 3707) in the presence of the test compound. Various concentrations of test compound, typically in 10 serial dilutions, were added to the assay mixture, with the starting concentration ranging from 333.3 nM to 1.667 nM. The final concentration of DMSO was 0.5%. Fetal bovine serum was 5%, in the assay media. Cells were harvested on day 3 by removing media and washing the cells with a suitable wash buffer. The cells were lysed with the addition of 1× Qiagen lysis buffer (Cat #1062731). The replicon RNA level was measured using real time PCR (TaqMan® EZ RT-PCR, Applied Biosystems 403028) with the following primers and probes: […]
(§2) Cyclophilin RNA was used as endogenous control and was amplified in the same reaction as NS5B (multiplex PCR). The real-time RT-PCR reactions were run on ABI PRISM 7900HT Sequence Detection System using the following program: 50° C. for 2 minutes, 60° C. for 30 minutes, 95° C. for 5 minutes, 40 cycles of 94° C. for 20 sec, 55° C. for 1 minutes.
(§3) The amount of HCV replicon RNA per cell was quantified using a linear regression curve for a known nanogram (ng) amount of HCV replicon total RNA. This was established by plotting the Cycle Threshold values (Ct) from the Neo probe and primer set versus the log (ng) for each HCV replicon total RNA standard. The amount of HCV RNA for each replicon sample was calculated by taking the sample's Ct value, minus the line intercept, divided by the slope of the line. Similarly, the amount of Cyclophilin mRNA per cell was also quantified using a linear regression curve for a known nanogram (ng) amount of HCV replicon total RNA. Again, this was established by plotting the Cycle Threshold values (Ct) from the Cyclophilin probe and primer set versus the log (ng) for each HCV replicon total RNA standard.
(§4) The real-time RT-PCR reactions were run on ABI PRISM 7900HT or Viia7 Sequence Detection System using the following program: 48° C. for 30 minutes, 95° C. for 10 minutes, 40 cycles of 95° C. for 15 sec, 60° C. for 1 minutes. The 50% effective concentration (EC50) was the drug concentration necessary to achieve an increase in the cycle threshold (CT) of 1 over the projected baseline CT.
(§5) Data was obtained for various compounds of the present invention using the methods described in the Example above, and is presented in the table immediately below. EC50 data for replicons 1A, 1AY93H and 2B were obtained using Replicon Assay A and EC50 data for replicon 1B was obtained using Replicon Assay B.

The test system of experiment [2] is HCV replicon 2B. In words: Cell-based HCV replicon assay (Replicon Assay A), replicon 2B. The note with it: replicon RNA by real time PCR, day 3. The procedure: as §1, §2, §3, §4, §5
Experiment [3] has as its system HCV replicon 1A Y93H. In words: Cell-based HCV replicon assay (Replicon Assay A), replicon 1AY93H. The note with it: read-out: EC50 replicon 1A Y93H; Replicon Assay A; replicon RNA by real time PCR, day 3. The procedure: as §1, §2, §3, §4, §5
[4] abbreviates: read-out: EC50 replicon 2B, Replicon Assay A.

On to `COC(=O)N[C@H](C(=O)N1CCC[C@H]1c1ncc(-c2cc(F)c3c(c2)OC(c2ccc4c(c2)OCCC4C)n2c-3cc3cc(-c4cnc([C@@H]5CCCN5C(=O)[C@@H](NC(=O)OC)C(C)C)[nH]4)ccc32)[nH]1)C(C)C` (single isomer, unassigned) [Compound 7], for which the EC50 in experiment [1] (Hepatitis C virus, 72 h) was 0.0017 nM; in experiment [2] (setting [4]), 1.59 nM; in experiment [3], 2.18 nM.
In the case of `COC(=O)N[C@H](C(=O)N1CCC[C@H]1c1ncc(-c2cc(F)c3c(c2)OC(c2ccc4c(c2)OCCC4C)n2c-3cc3cc(-c4cnc([C@@H]5CCCN5C(=O)[C@@H](NC(=O)OC)C(C)C)[nH]4)ccc32)[nH]1)C(C)C` (single isomer, unassigned) [Compound 9], the concentration for a half-maximal effect (EC50) in experiment [1] was determined as 0.0026 nM; in experiment [2] (setting [4]), 0.772 nM; in experiment [3], 0.949 nM.
For the compound `COC(=O)N[C@H](C(=O)N1CCC[C@H]1c1ncc(-c2cc(F)c3c(c2)OC(c2ccc4c(c2)OC(C)CC4)n2c-3cc3cc(-c4cnc([C@@H]5CCCN5C(=O)[C@@H](NC(=O)OC)C(C)C)[nH]4)ccc32)[nH]1)C(C)C` (single isomer, unassigned) [Compound 11], the 50% effective concentration (EC50) in experiment [1] (Hepatitis C virus, 72 h) is 0.0025 nM; in experiment [2] (setting [4]), 1.39 nM; in experiment [3], 5.7 nM.
Turning to `COC(=O)N[C@H](C(=O)N1CCC[C@H]1c1ncc(-c2cc(F)c3c(c2)OC(c2ccc4c(c2)OC(C)CC4)n2c-3cc3cc(-c4cnc([C@@H]5CCCN5C(=O)[C@@H](NC(=O)OC)C(C)C)[nH]4)ccc32)[nH]1)C(C)C` (single isomer, unassigned) [Compound 12], the results for the concentration for a half-maximal effect (EC50) in experiment [1], in experiment [2] (setting [4]) and in experiment [3] were 0.0016 nM, 1.9 nM and 6.73 nM, respectively.
Consider `COC(=O)N[C@H](C(=O)N1CCC[C@H]1c1ncc(-c2cc(F)c3c(c2)OC(c2ccc4c(c2)OCCC42CC2)n2c-3cc3cc(-c4cnc([C@@H]5CCCN5C(=O)[C@@H](NC(=O)OC)C(C)C)[nH]4)ccc32)[nH]1)C(C)C` (single isomer, unassigned) [Compound 15], for which the EC50 came out at 0.0012 nM in experiment [1] (Hepatitis C virus, 72 h); 1.31 nM in experiment [2] (setting [4]); 2.15 nM in experiment [3].
On to `COC(=O)N[C@H](C(=O)N1CCC[C@H]1c1ncc(-c2cc(F)c3c(c2)OC(c2ccc4c(c2)OCCC42CC2)n2c-3cc3cc(-c4cnc([C@@H]5CCCN5C(=O)[C@@H](NC(=O)OC)C(C)C)[nH]4)ccc32)[nH]1)C(C)C` (single isomer, unassigned) [Compound 16], for which the EC50 in experiment [1] was 0.002 nM; in experiment [2] (setting [4]) it was 0.038 nM; in experiment [3], 0.031 nM.
Turning to `COC(=O)N[C@H](C(=O)N1CCC[C@H]1c1ncc(-c2cc(F)c3c(c2)OC(c2ccc4c(c2)OC(C)(C)CC4)n2c-3cc3cc(-c4cnc([C@@H]5CCCN5C(=O)[C@@H](NC(=O)OC)C(C)C)[nH]4)ccc32)[nH]1)C(C)C` (single isomer, unassigned) [Compound 17], the half-maximal effective concentration (EC50) was 5.21 nM in experiment [2] (setting [4]) and 11.8 nM in experiment [3].
For `COC(=O)N[C@H](C(=O)N1CCC[C@H]1c1ncc(-c2cc(F)c3c(c2)OC(c2ccc4c(c2)OC(C)(C)CC4)n2c-3cc3cc(-c4cnc([C@@H]5CCCN5C(=O)[C@@H](NC(=O)OC)C(C)C)[nH]4)ccc32)[nH]1)C(C)C` (single isomer, unassigned) [Compound 18], the concentration for a half-maximal effect (EC50) in experiment [1] (Hepatitis C virus, 72 h) came to 0.0022 nM; in experiment [2] (setting [4]) it was 0.252 nM; in experiment [3], 0.052 nM.
For `COC(=O)N[C@H](C(=O)N1CCC[C@H]1c1ncc(-c2cc(F)c3c(c2)OC(c2ccc4c(c2)OCCC4(F)F)n2c-3cc3cc(-c4cnc([C@@H]5CCCN5C(=O)[C@@H](NC(=O)OC)C(C)C)[nH]4)ccc32)[nH]1)C(C)C` (single isomer, unassigned) [Compound 19] the same measures were 0.0014 nM, 0.767 nM and 4.2 nM.
In the case of `COC(=O)N[C@H](C(=O)N1CCC[C@H]1c1ncc(-c2cc(F)c3c(c2)OC(c2ccc4c(c2)CCC(C)(C)O4)n2c-3cc3cc(-c4cnc([C@@H]5CCCN5C(=O)[C@@H](NC(=O)OC)C(C)C)[nH]4)ccc32)[nH]1)C(C)C` (single isomer, unassigned) [Compound 21], the EC50 worked out at 0.0015 nM in experiment [1] (Hepatitis C virus, 72 h); 3.56 nM in experiment [2] (setting [4]); 7.11 nM in experiment [3].
In the case of `COC(=O)N[C@H](C(=O)N1CCC[C@H]1c1ncc(-c2cc(F)c3c(c2)OC(c2ccc4c(c2)CCC(C)(C)O4)n2c-3cc3cc(-c4cnc([C@@H]5CCCN5C(=O)[C@@H](NC(=O)OC)C(C)C)[nH]4)ccc32)[nH]1)C(C)C` (single isomer, unassigned) [Compound 22], the figures for the EC50 in experiment [1], in experiment [2] (setting [4]) and in experiment [3] were 0.0027 nM, 0.93 nM and 0.162 nM, respectively.
`COC(=O)N[C@H](C(=O)N1CCC[C@H]1c1ncc(-c2cc(F)c3c(c2)OC(c2ccc4c(c2)OCCC4)n2c-3cc3cc(-c4cnc([C@@H]5C[C@@H](F)CN5C(=O)[C@@H](c5ccccc5)N5CCC5)[nH]4)ccc32)[nH]1)C(C)C` (single isomer, unassigned) [Compound 37]: the EC50 is 0.187 nM in experiment [1] and 15.2 nM in experiment [3].
On the same counts, the results for `COC(=O)N[C@H](C(=O)N1CCC[C@H]1c1ncc(-c2cc(F)c3c(c2)OC(c2ccc4c(c2)OCCC4)n2c-3cc3cc(-c4cnc([C@@H]5C[C@@H](F)CN5C(=O)[C@@H](c5ccccc5)N5CCC5)[nH]4)ccc32)[nH]1)C(C)C` (single isomer, unassigned) [Compound 38] are 0.0052 nM and 6.65 nM.
For the compound `COC(=O)NC(C(=O)N1CCC[C@H]1c1ncc(-c2ccc3c(c2)cc2n3C(c3ccc4c(c3)OCCC4)Oc3cc(-c4cnc([C@@H]5CCCN5C(=O)[C@@H](NC(=O)OC)C(C)C)[nH]4)cc(F)c3-2)[nH]1)C(C)(C)F` (single isomer, unassigned) [Compound 41], the EC50 in experiment [2] (setting [4]) amounted to 4.13 nM.
On the same count and under the same terms, under `COC(=O)NC(C(=O)N1CCC[C@H]1c1ncc(-c2ccc3c(c2)cc2n3C(c3ccc4c(c3)OCCC4)Oc3cc(-c4cnc([C@@H]5CCCN5C(=O)[C@@H](NC(=O)OC)C(C)C)[nH]4)cc(F)c3-2)[nH]1)C(C)(C)F` (single isomer, unassigned) [Compound 44] stands 4.91 nM.
As for `COC(=O)N[C@H](C(=O)N1CCC[C@H]1c1ncc(-c2cc(F)c3c(c2)OC(c2ccc4c(c2)OCC4)n2c-3cc3cc(-c4cnc([C@@H]5C[C@H]6C[C@H]6N5C(=O)[C@@H](NC(=O)OC)C(C)C)[nH]4)ccc32)[nH]1)C(C)C` (single isomer, unassigned) [Compound 47], the EC50 in experiment [2] (setting [4]) stood at 4.32 nM; in experiment [3], 4.52 nM.
For the compound `CCN(CC)[C@@H](C(=O)N1[C@@H]2C[C@@H]2C[C@H]1c1ncc(-c2ccc3c(c2)cc2n3C(c3ccc4c(c3)OCCC4)Oc3cc(-c4cnc([C@@H]5CCCN5C(=O)[C@@H](NC(=O)OC)C5CCOCC5)[nH]4)cc(F)c3-2)[nH]1)c1ccccc1` (single isomer, unassigned) [Compound 53], the concentration for a half-maximal effect (EC50) in experiment [2] (setting [4]) turned out to be 0.379 nM.
In the case of `COC(=O)N[C@H](C(=O)N1CCC[C@H]1c1ncc(-c2cc(F)c3c(c2)OC(c2ccc4c(c2)OCCC4)n2c-3cc3cc(-c4cnc([C@@H]5C[C@H]6C[C@H]6N5C(=O)[C@@H](c5ccccc5)N5CCC5)[nH]4)ccc32)[nH]1)C1CCOCC1` (single isomer, unassigned) [Compound 71], in experiment [2] (Hepatitis C virus, 72 h, read-out: EC50 replicon 2B, Replicon Assay A), the EC50 was 5.13 nM.
As to `COC(=O)N[C@H](C(=O)N1CCC[C@H]1c1ncc(-c2cc(F)c3c(c2)OC(c2ccc4c(c2)OCCC4)n2c-3cc3cc(-c4cnc([C@@H]5C[C@H]6C[C@H]6N5C(=O)[C@@H](c5ccccc5)N5CCC5)[nH]4)ccc32)[nH]1)C1CCOCC1` (single isomer, unassigned) [Compound 72], the EC50 in experiment [2] (setting [4]) was 3.3 nM.
